Reference: US10413593B2 (priority 2014, dated 2019)

Key:
[1] = Cumulative food intake in DIO mice (Example 20, FIG. 3); conditions: 3 nmol/kg, after 8 days of dosing
Excerpt: For the studies in Examples 18, 19, 20, and 21, diet induced obesity (DIO) mice (strain C57Bl6/NTac; 20 weeks on a high fat diet, about 47 g) were divided into groups of eight mice per group and the initial average body weight, food intake and basal glucose of each group were matched before peptide administration. Each group of mice was subcutaneously injected daily with a dose of Co-agonist Peptide or vehicle control for 7 to 10 days. The peptides tested in this study were Co-agonist Peptides 1, 2, 3, 4, 5, and 6 (SEQ ID NOs: 6, 7, 8, 9, 10, and 11, respectively) at the doses that varied from 3 nmol/kg to 25 nmol/kg. Body weight, food intake and basal glucose were measured periodically during treatment.

[2] = Cumulative body weight change in DIO mice, daily s.c. dosing for nine days (Example 18, FIG. 1); format: in vivo, mice (strain C57Bl6/NTac); conditions: 9 nmol/kg s.c. daily, day 9
Method: Mice were administered a vehicle control or a dose of a peptide daily for nine days. […] The peptide of SEQ ID NO: 9 was administered at doses of 9 and 25 nmol/kg. Cumulative body weight change (grams) was measured each day of the study except on day 3. Results are shown in FIG. 1 and are expressed as mean±SEM.

[3] = Second study in DIO mice: body weight change percent relative to vehicle (Example 19, FIG. 2); format: in vivo, mice (strain C57Bl6/NTac); conditions: 3 nmol/kg daily, eight days
Method: In addition, the peptide of SEQ ID NO: 8 was administered at 15 nmol/kg, while the peptide of SEQ ID NOs: 10 and 11 were administered at 3 nmol/kg. Body weight was measured daily for eight days and body weight change is expressed as percent relative to vehicle (FIG. 2).

SMILES: CCCCCCCCCCCCCCCC(=O)N[C@@H](CCC(=O)N[C@@H](CCC(=O)NCCCC[C@H](NC(=O)[C@H](CC(=O)O)NC(=O)[C@H](CO)NC(=O)[C@@H](NC(=O)[C@H](Cc1ccccc1)NC(=O)[C@@H](NC(=O)CNC(=O)[C@H](CCC(N)=O)NC(=O)[C@@H](CO)NC(=O)[C@@H](N)Cc1c[nH]cn1)[C@@H](C)O)[C@@H](C)O)C(=O)N[C@@H](CO)C(=O)N[C@@H](CCCCN)C(=O)N[C@@H](Cc1ccc(O)cc1)C(=O)N[C@@H](CC(C)C)C(=O)N[C@@H](CC(=O)O)C(=O)N[C@@H](C)C(=O)N[C@@H](CCCNC(=N)N)C(=O)N[C@@H](C)C(=O)N[C@@H](C)C(=O)N[C@@H](CCC(N)=O)C(=O)N[C@@H](CC(=O)O)C(=O)N[C@@H](Cc1ccccc1)C(=O)N[C@H](C(=O)N[C@@H](CCC(N)=O)C(=O)N[C@@H](Cc1c[nH]c2ccccc12)C(=O)N[C@@H](CC(C)C)C(=O)N[C@@H](CC(C)C)C(=O)N[C@@H](CC(=O)O)C(=O)N[C@H](C(N)=O)[C@@H](C)O)C(C)C)C(=O)O)C(=O)O [SEQ ID NO: 10]
- change in food intake vs vehicle [1]: significant suppression of food intake
- body weight loss [2]: approximately 13 grams
- weight loss, percent relative to vehicle [3]: approximately 17%
